The assay has as its target T1, human mAChR M4 (Homo sapiens, UniProt P08173).
T1 construct: expressed in transfected cells; host or cells: CHO-K1 (American Type Culture Collection), stably expressing hM4 and Gqi5
T1 sequence (P08173 1-479): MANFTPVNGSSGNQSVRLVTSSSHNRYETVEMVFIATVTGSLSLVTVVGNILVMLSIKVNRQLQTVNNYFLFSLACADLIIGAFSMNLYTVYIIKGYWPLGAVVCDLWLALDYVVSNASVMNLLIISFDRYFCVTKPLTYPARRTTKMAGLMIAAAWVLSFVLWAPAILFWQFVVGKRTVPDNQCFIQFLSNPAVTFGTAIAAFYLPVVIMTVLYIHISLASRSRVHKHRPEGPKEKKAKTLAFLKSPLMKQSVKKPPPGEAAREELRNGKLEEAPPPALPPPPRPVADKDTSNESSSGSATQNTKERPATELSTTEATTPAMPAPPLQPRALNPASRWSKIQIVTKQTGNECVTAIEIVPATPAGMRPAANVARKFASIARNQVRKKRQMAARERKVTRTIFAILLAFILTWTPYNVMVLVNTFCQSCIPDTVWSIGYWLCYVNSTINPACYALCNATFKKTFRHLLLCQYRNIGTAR
Nature of the assay: mAChR M4 cell-based functional assay: calcium mobilization (Fluo-4, FDSS), potentiation of EC20 acetylcholine response in hM4-Gqi5 CHO-K1 cells. Conditions: human M4; for Emax at 30 µM: CHO-K1, % ACh maximum at 30 μM; for EC50: potentiation of EC20 acetylcholine response, calcium mobilization. In a few lines: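 Readout is the fluorescence-ratio rise at 1 Hz on FDSS, with PAM activity taken as concentration-dependent enhancement of the EC20 acetylcholine response, fitted four-parameter for EC50/Emax. hM4-Gqi5 CHO-K1 cells carried Fluo-4 AM dye; test compounds (11 points, 1:3) preceded EC20 acetylcholine additions at 144 s and 230 s.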
A general note: Calcium assays in cells follow changes in intracellular calcium, usually with a dye or a luminescent sensor.

For the compound `COCc1cc(=O)n2nc(N3CCc4ncc(-c5cncnc5)cc4C3)c(C)cc2n1` [Compound 1-324, 2-(methoxymethyl)-8-methyl-7-(3-(pyrimidin-5-yl)-7,8-dihydro-1,6-naphthyridin-6(5H)-yl)-4H-pyrimido[1,2-b] pyridazin-4-one], the Emax (commonly the greatest response seen or fitted, relative to the assay's reference) at 30 µM amounted to 59%.

As to `Cc1cc2nccc(=O)n2nc1N1CCc2ncc(-c3cnn4c3COCC4)cc2C1` [Compound 1-325, 7-(3-(6,7-dihydro-4H-pyrazolo[5,1-c][1,4]oxazin-3-yl)-7,8-dihydro-1,6-naphthyridin-6(5H)-yl)-8-methyl-4H-pyrimido[1,2-b]pyridazin-4-one], the Emax at 30 µM amounted to 68% and the EC50 – broadly, the concentration that produces a half-maximal response – was 0.921 µM.

As for `Cc1cc2nccc(=O)n2nc1N1CCc2ncc(-c3cnc(F)c(Cl)c3)cc2C1` [Compound 1-326, 7-(3-(5-chloro-6-fluoropyridin-3-yl)-7,8-dihydro-1,6-naphthyridin-6(5H)-yl)-8-methyl-4H-pyrimido[1,2-b]pyridazin-4-one], the Emax at 30 µM was 49% and the EC50 is 1.48 µM.

Turning to `COCc1cc(=O)n2nc(N3CCc4ncc(-c5cnc(F)cc5C)cc4C3)c(C)cc2n1` [Compound 1-327, 7-(3-(6-fluoro-4-methylpyridin-3-yl)-7,8-dihydro-1,6-naphthyridin-6(5H)-yl)-2-(methoxymethyl)-8-methyl-4H-pyrimido[1,2-b]pyridazin-4-one], the Emax at 30 µM amounted to 71% and the EC50 came to 0.311 µM.

For `COCc1cc(=O)n2nc(N3CCc4ncc(-c5cc(F)ncc5C)cc4C3)c(C)cc2n1` [Compound 1-328, 7-(3-(2-fluoro-5-methylpyridin-4-yl)-7,8-dihydro-1,6-naphthyridin-6(5H)-yl)-2-(methoxymethyl)-8-methyl-4H-pyrimido[1,2-b] pyridazin-4-one], the Emax at 30 µM was determined as 68% and the EC50 was 0.484 µM.

For `Cc1cc2nccc(=O)n2nc1N1CCc2ncc(-c3cnc(Cl)cc3C(F)F)cc2C1` [Compound 1-329, 7-(3-(6-chloro-4-(difluoromethyl)pyridin-3-yl)-7,8-dihydro-1,6-naphthyridin-6(5H)-yl)-8-methyl-4H-pyrimido[1,2-b]pyridazin-4-one], the Emax at 30 µM amounted to 78% and the EC50 is 1.06 µM.

Regarding `COCc1cc(=O)n2nc(N3CCc4ncc(-c5ccc(F)c(F)c5)cc4C3)c(C)cc2n1` [Compound 1-330, 7-(3-(3,4-difluorophenyl)-7,8-dihydro-1,6-naphthyridin-6(5H)-yl)-2-(methoxymethyl)-8-methyl-4H-pyrimido[1,2-b] pyridazin-4-one], the Emax at 30 µM was found to be 68% and the EC50 amounted to 0.477 µM.

`Cc1cc2nccc(=O)n2nc1N1CCc2ncc(-c3cnc(F)c(F)c3)cc2C1` [Compound 1-331, 7-(3-(5,6-difluoropyridin-3-yl)-7,8-dihydro-1,6-naphthyridin-6(5H)-yl)-8-methyl-4H-pyrimido [1,2-b]pyridazin-4-one]: the Emax at 30 µM came to 53% and the EC50 was determined as 1.25 µM.

Consider `COCc1cc(=O)n2nc(N3CCc4ncc(-c5cc(F)ccc5C)cc4C3)c(C)cc2n1` [Compound 1-332, 7-(3-(5-fluoro-2-methylphenyl)-7,8-dihydro-1,6-naphthyridin-6(5H)-yl)-2-(methoxymethyl)-8-methyl-4H-pyrimido[1,2-b] pyridazin-4-one], for which the Emax at 30 µM stood at 67% and the EC50 was found to be 0.244 µM.

Regarding `Cc1cc(Cl)ncc1-c1cnc2c(c1)CN(c1nn3c(=O)ccnc3cc1C)CC2` [Compound 1-333, 7-(3-(6-chloro-4-methylpyridin-3-yl)-7,8-dihydro-1,6-naphthyridin-6(5H)-yl)-8-methyl-4H-pyrimido[1,2-b]pyridazin-4-one], the Emax at 30 µM is 69% and the EC50 came to 0.247 µM.

For `Cc1cc2nccc(=O)n2nc1N1CCc2ncc(-c3ccc(Cl)nn3)cc2C1` [Compound 1-334, 7-(3-(6-chloropyridazin-3-yl)-7,8-dihydro-1,6-naphthyridin-6(5H)-yl)-8-methyl-4H-pyrimido [1,2-b]pyridazin-4-one], the Emax at 30 µM was 45% and the EC50 amounted to 1.23 µM.

Consider `COCc1cc(=O)n2nc(N3CCc4ncc(-c5cc(F)c(F)cc5F)cc4C3)c(C)cc2n1` [Compound 1-335, 2-(methoxymethyl)-8-methyl-7-(3-(2,4,5-trifluorophenyl)-7,8-dihydro-1,6-naphthyridin-6(5H)-yl)-4H-pyrimido[1,2-b]pyridazin-4-one], for which the Emax at 30 µM worked out at 68% and the EC50 came out at 0.576 µM.

As for `COCc1cc(=O)n2nc(N3CCc4ncc(-c5cc(F)ccc5F)cc4C3)c(C)cc2n1` [Compound 1-336, 7-(3-(2,5-difluorophenyl)-7,8-dihydro-1,6-naphthyridin-6(5H)-yl)-2-(methoxymethyl)-8-methyl-4H-pyrimido[1,2-b] pyridazin-4-one], the maximal response (Emax) at 30 µM was 66% and the EC50 was found to be 0.357 µM.

On to `COCc1cc(=O)n2nc(N3CCc4ncc(-c5ccccc5C)cc4C3)c(C)cc2n1` [Compound 1-337, 2-(methoxymethyl)-8-methyl-7-(3-(o-tolyl)-7,8-dihydro-1,6-naphthyridin-6(5H)-yl)-4H-pyrimido[1,2-b]pyridazin-4-one], for which the Emax at 30 µM stood at 76% and the EC50 is 0.331 µM.

`Cc1c(N2CCc3ncc(-c4cnn(C)c4C)cc3C2)nn2c(=O)ccnc2c1C` [Compound 1-338, 7-(3-(1,5-dimethyl-1H-pyrazol-4-yl)-7,8-dihydro-1,6-naphthyridin-6(5H)-yl)-8,9-dimethyl-4H-pyrimido[1,2-b]pyridazin-4-one]: the Emax at 30 µM came out at 88% and the EC50 is 0.131 µM.

Regarding `Cc1c(N2CCc3ncc(-c4cnn(C(F)F)c4)cc3C2)nn2c(=O)ccnc2c1C` [Compound 1-339, 7-(3-(1-(difluoromethyl)-1H-pyrazol-4-yl)-7,8-dihydro-1,6-naphthyridin-6(5H)-yl)-8,9-dimethyl-4H-pyrimido[1,2-b]pyridazin-4-one], the Emax at 30 µM was determined as 77% and the EC50 is 0.23 µM.

In the case of `Cc1c(N2CCc3ncc(-c4ccccc4C(C)C)cc3C2)nn2c(=O)ccnc2c1C` [Compound 1-340, 7-(3-(2-isopropylphenyl)-7,8-dihydro-1,6-naphthyridin-6(5H)-yl)-8,9-dimethyl-4H-pyrimido[1,2-b]pyridazin-4-one], the Emax at 30 µM worked out at 48% and the EC50 worked out at 0.503 µM.

Take `Cc1cc(F)c(F)c(-c2cnc3c(c2)CN(c2nn4c(=O)ccnc4c(C)c2C)CC3)c1` [Compound 1-341, 7-(3-(2,3-difluoro-5-methylphenyl)-7,8-dihydro-1,6-naphthyridin-6(5H)-yl)-8,9-dimethyl-4H-pyrimido[1,2-b]pyridazin-4-one]: the Emax at 30 µM turned out to be 75% and the EC50 amounted to 0.673 µM.

As for `CCc1ccccc1-c1cnc2c(c1)CN(c1nn3c(=O)ccnc3c(C)c1C)CC2` [Compound 1-342, 7-(3-(2-ethylphenyl)-7,8-dihydro-1,6-naphthyridin-6(5H)-yl)-8,9-dimethyl-4H-pyrimido[1,2-b]pyridazin-4-one], the Emax at 30 µM amounted to 72% and the EC50 is 0.204 µM.

For the compound `Cc1c(N2CCc3ncc(-c4ccccc4F)cc3C2)nn2c(=O)ccnc2c1C` [Compound 1-343, 7-(3-(2-fluorophenyl)-7,8-dihydro-1,6-naphthyridin-6(5H)-yl)-8,9-dimethyl-4H-pyrimido[1,2-b]pyridazin-4-one], the Emax at 30 µM was found to be 77% and the EC50 was 0.4 µM.

On to `COc1ccccc1-c1cnc2c(c1)CN(c1nn3c(=O)ccnc3c(C)c1C)CC2` [Compound 1-344, 7-(3-(2-methoxyphenyl)-7,8-dihydro-1,6-naphthyridin-6(5H)-yl)-8,9-dimethyl-4H-pyrimido[1,2-b]pyridazin-4-one], for which the Emax at 30 µM came out at 72% and the EC50 is 0.663 µM.

`Cc1c(N2CCc3ncc(-c4cc(F)ccc4F)cc3C2)nn2c(=O)ccnc2c1C` [Compound 1-345, 7-(3-(2,5-difluorophenyl)-7,8-dihydro-1,6-naphthyridin-6(5H)-yl)-8,9-dimethyl-4H-pyrimido[1,2-b]pyridazin-4-one]: the Emax at 30 µM amounted to 70% and the EC50 was found to be 0.2 µM.

On to `Cc1c(N2CCc3ncc(-c4cc(F)cc(F)c4F)cc3C2)nn2c(=O)ccnc2c1C` [Compound 1-346, 8,9-dimethyl-7-(3-(2,3,5-trifluorophenyl)-7,8-dihydro-1,6-naphthyridin-6(5H)-yl)-4H-pyrimido[1,2-b]pyridazin-4-one], for which the Emax at 30 µM came out at 67% and the EC50 came to 0.483 µM.

Consider `Cc1c(N2CCc3ncc(-c4ccc(F)cc4F)cc3C2)nn2c(=O)ccnc2c1C` [Compound 1-347, 7-(3-(2,4-difluorophenyl)-7,8-dihydro-1,6-naphthyridin-6(5H)-yl)-8,9-dimethyl-4H-pyrimido[1,2-b]pyridazin-4-one], for which the Emax at 30 µM worked out at 80% and the EC50 amounted to 0.217 µM.

With `Cc1cccnc1-c1cnc2c(c1)CN(c1nn3c(=O)ccnc3cc1C)CC2` [Compound 1-348, 8-methyl-7-(3-(3-methylpyridin-2-yl)-7,8-dihydro-1,6-naphthyridin-6(5H)-yl)-4H-pyrimido[1,2-b]pyridazin-4-one], the Emax at 30 µM amounted to 68% and the EC50 was found to be 2.6 µM.
